Like-named read-outs stand apart in the source and are kept apart here. No end group written: not given here.
Legend:
Acinetobacter strains = conditions: strains NM8, NM35, NM75, NM109, NM124; Mechkarska et al., 2013; cited from earlier work
[1] = test system: Stenotrophomonas maltophilia strains; conditions: all Stenotrophomonas strains (B32/1, B32/4, B5/5, B6/2, U8708); cited from earlier work
S. epidermidis = experiment: MIC by micro-dilution, S. epidermidis; assay type: cell-based; conditions: for Minimum inhibitory concentration S. epidermidis RP62A: strain RP62A; for Minimum inhibitory concentration S. epidermidis RP62A/1: strain RP62A/1; for Minimum inhibitory concentration S. epidermidis T6/19: strain T6/19; for Minimum inhibitory concentration S. epidermidis T37/8: strain T37/8
Procedure: (§1) Minimum Inhibitory Concentration (MIC) of the peptides was determined in duplicate in three independent experiments by standard micro-dilution methods according to CLSI guidelines (Clinical Laboratory and Standards Institute 2008a, 2008b) using 96-well microtitre cell-culture plates.
(§2) For bacteria assays, serial dilutions of the peptides (0.6-80 μM) in Mueller-Hinton broth (50 μL) were mixed with an inoculum of 50 μL of 10^6 colony forming units (CFU)/mL) from a log-phase culture. The peptide and inoculum mixture was incubated for 18 h at 37° C. in a humidified atmosphere. For yeast, an inoculum of 5×10^4 CFU/mL from Candida albicans was incubated in the presence of serial dilutions of the peptides (0.6-80 μM) in RPMI 1640 medium for 48 h at 35° C. After incubation, the absorbance at 630 nm of each well was determined using a microtiter plate reader.

E. coli = experiment: MIC by micro-dilution, E. coli; assay type: cell-based; conditions: reference strain
Procedure: as §1, §2
(§3) As a control, incubations were carried out in parallel with increasing concentrations of antibiotics wherever the isolate was originally susceptible (ampicillin for S. aureus and E. coli, ciprofloxacin for K. pneumoniae and P. aeruginosa, and amphotericin B for C. albicans).

C. albicans = experiment: MIC by micro-dilution, C. albicans; assay type: cell-based, Candida albicans; conditions: reference strain; RPMI 1640, 48 h at 35° C.
Procedure: as §1, §2, §3

[2] = test system: S. aureus (ATCC 25923 and MRSA clinical isolates); assay type: cell-based, Staphylococcus aureus; conditions: for Minimum inhibitory concentration S. aureus ATCC 25923 / Minimum inhibitory concentration S. aureus S908: ATCC 25923; for Minimum inhibitory concentration S. aureus 127/08 / Minimum inhibitory concentration S. aureus 145/08 / Minimum inhibitory concentration S. aureus 274/08 / Minimum inhibitory concentration S. aureus T4/6: MRSA clinical isolate
Description: Six clinical sporadic isolates of MRSA were isolated from the wounds of patients admitted to Tawam Hospital (Al Ain, UAE). The strains were characterised by multi-locus sequence typing (MLST), Staphylococcal cassette chromosome (SCCmec) typing, accessory gene regulator (agr) typing, Staphylococcus protein A (spa) typing, and toxin gene carriage (Sonnevend et al., 2012). The isolated strains (127/08, 145/08, 274/08, V4180, S908, and T4/6) were resistant to all β-lactam antibiotics tested and to a range of non-β-lactam antibiotics.
as §1, §2, §3

A. baumannii = test system: A. baumannii
Procedure: (§4) Acinetobacter strains (NM8, NM35, NM75, NM109, and NM124) were isolated from different hospitals in the UAE. The Acinetobacter strains were characterised based on PCR analysis. […] Stenotrophomonas maltophilia strains (B32/1, B32/4, B5/5, B6/2, and U8708) were isolated from patients with bloodstream infection as discussed in Jumaa et al, 2006.
as §1, §2

S. maltophilia = test system: S. maltophilia
Procedure: as §4, §1, §2

[3] = test system: human breast adenocarcinoma MDA-MB-231 cells; experiment: Viability assay (CellTiter-Glo, ATP), MDA-MB-231; assay type: cell-based; conditions: 24 h exposure; mean ± S.E.M.; read-out: LC50 MDA-231
Procedure: (§5) For cytotoxicity assay, the effect of the peptides on three different types of cancer cells were analysed, human non-small cell lung adenocarcinoma A549 cells, human breast adenocarcinoma MDA-MB-231 cells and human colorectal adenocarcinoma HT-29 cells. As control, HUVEC cell line was selected.
(§6) A549 cell line was maintained in RPMI 1640 medium containing 2 mM L-glutamine and supplemented with 10% FCS at 37° C. MDA-MB-231 and HT-29 cell lines were maintained in DMEM medium supplemented with 10% FCS at 37° C. The medium for cancer cells were further supplemented with antibiotics, penicillin 50 U/mL and streptomycin […]. HUVEC cells were maintained in EndoGRO MV-VEGF Complete Media Kit at 37° C.
(§7) The cells from each of the four cell lines were seeded individually in a 96-wells plate at a cell density of 5×10^3 cells/well. […]
(§8) The effect of the peptides on the cell viability was determined by the measurement of the concentration of ATP using CellTitre-Glo Luminescent Cell Viability assay. Luminescent signals were measured using a GLOMAX Luminometer system.
(§9) The LC50 value was calculated for both the peptides for individual cell lines by conducting non-linear regression analysis using commercially available software (SPPS version 17.0; SPS Inc, Chicago, Ill., USA). […]

K. pneumoniae = experiment: MIC by micro-dilution, K. pneumoniae; assay type: cell-based; conditions: reference strain
Procedure: as §1, §2, §3

Haemolysis assay = assay type: cell-based, human; conditions: human, pH 7.4
Procedure: (§10) For analysis of the haemolytic activity, RBCs (2×10^7 cells) taken from a healthy donor in DBPS, pH 7.4 (100 μL) were incubated with Ps-1Pb and Ps-2 Pa respectively in varying concentrations ranging from 1.6 μM to 100 μM of the peptides for a period of 1 hour at 37° C. After 1 hr, the samples were centrifuged at 12000 rpm for 15 seconds and the supernatant was collected. Absorbance of the supernatant was measured at 450 nm.
(§11) As control, the RBCs at a concentration of 2×10^7 were incubated in DBPS as a negative control to detect the absorbance in the absence of haemolysis. In addition, positive control was also maintained in which the RBC at a concentration of 2×10^7 was incubated with DPBS and 1% v/v Tween-20. The controls were centrifuged at 12000 rpm for 15 seconds and an absorbance reading was taken for the supernatant at 450 nm.
(§12) The LC50 value was taken as the mean concentration of peptide producing 50% haemolysis in three independent experiments.

[4] = test system: human red blood cells (RBC); experiment: Haemolysis assay; assay type: cell-based
Procedure: as §10, §11, §12

[5] = test system: human colorectal adenocarcinoma HT-29 cells; experiment: Viability assay (CellTiter-Glo, ATP), HT-29; assay type: cell-based; conditions: 24 h exposure; mean ± S.E.M.; read-out: LC50 HT-29
Procedure: as §5, §6, §7, §8, §9

in vitro = assay type: cell-based
Procedure: as §5, §6, §7, §8, §9

E. faecalis ATCC 29212 = experiment: MIC by micro-dilution, E. faecalis; assay type: cell-based, Enterococcus faecalis; conditions: reference strain
Procedure: as §1, §2

P. aeruginosa = experiment: MIC by micro-dilution, P. aeruginosa; assay type: cell-based; conditions: reference strain
Procedure: as §1, §2, §3

S. aureus (ATCC 25923) = assay type: cell-based; conditions: 4×MIC, within 180 min
Procedure: In order to determine the rate at which the peptides caused cell death, log-phase cultures of S. aureus (ATCC 25923) and E. coli (ATCC 25726) at a concentration of 0.5×10^6 CFU/mL in Mueller-Hinton broth (1 ml) were incubated in polypropylene tubes at 37° C. with Ps-1Pb at a concentration of 4×MIC. Control incubations in the absence of peptide were also carried out. Aliquots of 25 μl were removed at the time intervals 0, 0.5, 1, 2, 3, 4 and 24 hrs and the CFU of the serially diluted samples was determined on Mueller-Hinton agar plates. The time required for 99.9% cell death was determined.

[6] = 1 hour at 37° C., mean ± S.E.M., read-out: LC50 RBC (50% haemolysis)

Compound | susceptibility of Acinetobacter strains (in words) (Acinetobacter strains) | MIC against Stenotrophomonas strains [1] [µg/mL] | Minimum inhibitory concentration S. epidermidis RP62A (S. epidermidis) [µM] | Minimum inhibitory concentration S. epidermidis RP62A/1 (S. epidermidis) [µM] | Minimum inhibitory concentration S. epidermidis T6/19 (S. epidermidis) [µM] | Minimum inhibitory concentration S. epidermidis T37/8 (S. epidermidis) [µM] | Minimum inhibitory concentration E. coli (E. coli) [µM] | Minimum inhibitory concentration C. albicans (C. albicans) [µM] | Minimum inhibitory concentration S. aureus V4180 [2] [µM] | Minimum inhibitory concentration S. aureus ATCC 25923 [2] [µM] | Minimum inhibitory concentration S. aureus S908 [2] [µM] | Minimum inhibitory concentration S. aureus 127/08 [2] [µM] | Minimum inhibitory concentration S. aureus 145/08 [2] [µM] | Minimum inhibitory concentration S. aureus 274/08 [2] [µM] | Minimum inhibitory concentration S. aureus T4/6 [2] [µM] | Minimum inhibitory concentration A. baumannii NM8 (A. baumannii) [µM] | Minimum inhibitory concentration A. baumannii NM35 (A. baumannii) [µM] | Minimum inhibitory concentration A. baumannii NM75 (A. baumannii) [µM] | Minimum inhibitory concentration A. baumannii NM109 (A. baumannii) [µM] | Minimum inhibitory concentration A. baumannii NM124 (A. baumannii) [µM] | further results
CN(C)c1cc(NC(=O)CNC(C)(C)C)c(O)c2c1C[C@H]1C[C@H]3[C@H](N(C)C)C(O)=C(C(N)=O)C(=O)[C@@]3(O)C(O)=C1C2=O [tigecycline] | sensitive | – | – | – | – | – | – | – | – | – | – | – | – | – | – | – | – | – | – | – | –
colistin | sensitive | – | – | – | – | – | – | – | – | – | – | – | – | – | – | – | – | – | – | – | –
C[C@@H](O)[C@H]1C(=O)N2C(C(=O)O)=C(S[C@@H]3CN[C@H](C(=O)N(C)C)C3)[C@H](C)[C@H]12 [meropenem] | – | > 32 | – | – | – | – | – | – | – | – | – | – | – | – | – | – | – | – | – | – | –
GIFPIFAKLLGKVIKVASSLISKGRTE [Pseudhymenochirin-2Pa, Pseudhymenochirin-2 Pa] | – | – | 5 | 2.5 | 5 | 10 | >80 | 80 | 10 | 5 | 10 | 5 | 10 | 10 | 10 | 20 | 10 | 10 | 10 | 20 | Minimum inhibitory concentration S. maltophilia B5/5 (S. maltophilia; clinical isolate): 40 µM; Minimum inhibitory concentration S. maltophilia B6/2 (S. maltophilia; clinical isolate): 20 µM; Minimum inhibitory concentration S. maltophilia B32/1 (S. maltophilia; clinical isolate): 10 µM; Minimum inhibitory concentration S. maltophilia B32/4 (S. maltophilia; clinical isolate): 10 µM; Minimum inhibitory concentration S. maltophilia U8908 (S. maltophilia; clinical isolate): 20 µM; CC50 [3]: 6.2 ± 0.6 µM; Minimum inhibitory concentration K. pneumoniae (K. pneumoniae): >80 µM; HC50 at 1 hour (Haemolysis assay; [6]): 6.2 ± 1 µM; CC50 [4, 6]: 6 µM; haemolytic activity (in words) ([4]; human erythrocytes): appreciable haemolytic activity; CC50 [5]: 11.5 ± 2.6 µM; CC50 at 24 h (in vitro; 24 h exposure, non-neoplastic cells, mean ± S.E.M., read-out: LC50 HUVEC): 68 µM; Minimum inhibitory concentration E. faecalis ATCC 29212 (E. faecalis ATCC 29212): 20 µM; Minimum inhibitory concentration P. aeruginosa (P. aeruginosa): >80 µM
IKIPSFFRNILKKVGKEAVSLIAGALKQS [Pseudhymenochirin-1Pb] | – | – | 2.5 | 1.25 | 2.5 | 2.5 | 10 | 80 | 5 | 5 | 5 | 5 | 10 | 5 | 5 | 10 | 5 | 5 | 5 | 5 | killing of the bacteria, S. aureus (S. aureus (ATCC 25923)): > 99.9%; MIC against clinical isolates of A. baumannii (range) (A. baumannii): 5 to 10 µM; MIC against clinical isolates of S. maltophilia (range) (S. maltophilia): 5 to 10 µM; Minimum inhibitory concentration S. maltophilia U8908 (S. maltophilia): 5 µM; Minimum inhibitory concentration S. maltophilia B5/5 (S. maltophilia; clinical isolate): 10 µM; Minimum inhibitory concentration S. maltophilia B6/2 (S. maltophilia; clinical isolate): 5 µM; Minimum inhibitory concentration S. maltophilia B32/1 (S. maltophilia; clinical isolate): 5 µM; Minimum inhibitory concentration S. maltophilia B32/4 (S. maltophilia; clinical isolate): 5 µM; Minimum inhibitory concentration K. pneumoniae (K. pneumoniae): 20 µM; HC50 at 1 hour (Haemolysis assay): 28 ± 2 µM; haemolytic activity (in words) [4]: high haemolytic activity; less cytotoxic to human erythrocytes as compared to the tumour cells [4]: 3-11 fold; CC50 at 24 h (in vitro; human): 5.6 ± 0.9 µM; Minimum inhibitory concentration E. faecalis ATCC 29212 (E. faecalis ATCC 29212): 10 µM; Minimum inhibitory concentration P. aeruginosa (P. aeruginosa): 20 µM
co-trimoxazole | – | < 5 | – | – | – | – | – | – | – | – | – | – | – | – | – | – | – | – | – | – | –
